Results as given in PubChem BioAssay (NCI).
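Growth conditions: 96-well plates. Treatment: test compound, 48 hours, 5 concentrations. Analysis: linear interpolation between bracketing concentrations; unreached endpoints set to highest concentration. GI50 is the concentration that inhibits growth by half. TGI: concentration producing complete growth inhibition.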

Assays:
Assay in all cases: inhibition of tumour cell growth, NCI panel, 48 h
KM12 colon = test system: KM12 colon
U251 CNS = test system: U251 CNS
SK-OV-3 ovarian = test system: SK-OV-3 ovarian
SR leukemia = test system: SR leukemia
A549 NSCLC = test system: A549 NSCLC
SK-MEL-5 melanoma = test system: SK-MEL-5 melanoma
TK-10 renal = test system: TK-10 renal
CAKI-1 renal = test system: CAKI-1 renal
HCC-2998 colon = test system: HCC-2998 colon
OVCAR-3 ovarian = test system: OVCAR-3 ovarian

SMILES | GI50 (KM12 colon) [µM] | TGI (KM12 colon) [µM] | GI50 (U251 CNS) [µM] | TGI (U251 CNS) [µM] | GI50 (SK-OV-3 ovarian) [µM] | TGI (SK-OV-3 ovarian) [µM] | GI50 (SR leukemia) [µM] | TGI (SR leukemia) [µM] | GI50 (A549 NSCLC) [µM] | TGI (A549 NSCLC) [µM] | GI50 (SK-MEL-5 melanoma) [µM] | TGI (SK-MEL-5 melanoma) [µM] | GI50 (TK-10 renal) [µM] | TGI (TK-10 renal) [µM] | GI50 (CAKI-1 renal) [µM] | TGI (CAKI-1 renal) [µM] | TGI (HCC-2998 colon) [µM] | TGI (OVCAR-3 ovarian) [µM] | GI50 (HCC-2998 colon) [µM] | GI50 (OVCAR-3 ovarian) [µM]
O=C1C(Cl)=C(Nc2cccc(O)c2)C(=O)N1c1ccc(Cl)cc1Cl | 38.8 | > 100 | 19 | 66.7 | 40.4 | > 100 | 2.76 | 26.9 | 46.3 | > 100 | 14.7 | 32.2 | > 100 | > 100 | 12.9 | 45 | – | – | – | –
Cc1ccc(C(O)/C(=N/N)c2nc3ccc([N+](=O)[O-])cc3[nH]c2=O)cc1 (configuration not stated) | – | > 100 | – | > 100 | – | > 100 | – | > 100 | – | > 100 | – | > 100 | – | > 100 | – | – | > 100 | > 100 | – | –
CCc1cccc(CC)c1NC(=O)c1ccn2c1CCc1cnc(Nc3ccc(N4CCN(C)CC4)cc3OC)nc1-2 | 2.63 | 14.8 | 1.84 | 5.99 | 11.3 | 23.4 | – | – | 2.17 | 42 | 1.61 | 3.02 | 2.93 | 16.2 | – | – | 8.63 | 4.22 | 2.28 | 1.55
C[CH2][Sn]([Cl])([CH2]C)[CH2]C | 1.08 | 12.8 | 0.771 | 2.97 | 1.47 | 5.8 | 0.481 | 5.01 | 1.18 | 5.04 | 0.761 | 2.26 | 3.02 | 6.94 | – | – | 1.66 | 6.61 | 0.354 | 1.34
C[C@]12CC/C(=N\OC(=O)Nc3ccccc3)C=C1CC[C@@H]1C2CC[C@@]2(C)C1CC[C@@H]2OC(=O)Nc1ccccc1 (some centres not stated) | – | > 100 | – | > 100 | – | > 100 | – | – | – | > 100 | – | > 100 | – | > 100 | – | 19.8 | > 100 | > 100 | – | –
COc1cccc(N2C(=O)[C@H]3[C@H]4CC(C(C)(C)C)CC[C@H]4c4c([nH]c5ccccc45)[C@H]3C2=O)c1 (some centres not stated) | – | > 100 | – | – | – | 35.3 | – | – | – | 29 | – | 35.6 | – | 28.8 | – | 32.3 | > 100 | 36.2 | – | –
C(=C\c1nc2ccccc2s1)/c1ccc(N2CCOCC2)s1 | 93.8 | > 100 | 44.8 | > 100 | 90.7 | > 100 | 58.9 | > 100 | 31.8 | > 100 | 21.8 | > 100 | 48.4 | > 100 | > 100 | > 100 | – | > 100 | – | 61.7
C/C=C/C=C\C(=O)C1c2cccc(O)c2C(=O)c2c(O)cc(C)cc21 (configuration not stated) | – | 1.51 | – | 1.63 | – | 3.08 | – | – | – | 2.13 | – | 2.69 | – | 3.76 | – | 4.34 | 1.6 | 2.2 | – | –
CCOC1=C2C(C)(CCC3[C@@]4(C)C=CC(=O)C(C)(C)C4CC(O)[C@@]23C)C(c2ccoc2)C1=O (some centres not stated) | – | 46.6 | – | 34.8 | – | 76.8 | – | – | – | 98.6 | – | 29.5 | – | 61.3 | – | > 100 | 31.1 | 33.4 | – | –
